The results in this text go back to ChEMBL document CHEMBL1133281, “Synthesis and HIV-1 integrase inhibitory activities of caffeoylglucosides” (Bioorg Med Chem Lett, 2000).

pIC50: −log10 of the molar value.

In this assay the target is Human immunodeficiency virus type 1 integrase (Human immunodeficiency virus 1, UniProt Q7ZJM1). In words: Inhibitory activity against HIV-1 integrase.
Chain of Human immunodeficiency virus type 1 integrase (Q7ZJM1 whole entry): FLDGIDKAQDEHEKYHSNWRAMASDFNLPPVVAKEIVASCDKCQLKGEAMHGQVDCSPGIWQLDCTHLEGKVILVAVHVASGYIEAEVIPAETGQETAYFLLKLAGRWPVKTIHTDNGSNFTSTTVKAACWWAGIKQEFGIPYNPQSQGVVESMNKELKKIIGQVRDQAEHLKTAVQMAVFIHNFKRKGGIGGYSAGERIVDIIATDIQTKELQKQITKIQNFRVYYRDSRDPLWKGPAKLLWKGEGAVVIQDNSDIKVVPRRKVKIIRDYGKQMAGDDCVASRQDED
Take `CO[C@H]1O[C@H](COC(=O)/C=C/c2ccc(O)c(O)c2)[C@@H](OC(=O)/C=C/c2ccc(O)c(O)c2)[C@H](OC(=O)/C=C/c2ccc(O)c(O)c2)[C@H]1OC(=O)/C=C/c1ccc(O)c(O)c1`: the pIC50 was < 3.93.

With `CO[C@@H]1O[C@H](COC(=O)/C=C/c2ccc(O)c(O)c2)[C@@H](O)[C@H](OC(=O)/C=C/c2ccc(O)c(O)c2)[C@H]1O`, the pIC50 is 4.45.

In the case of `CO[C@@H]1O[C@H](COC(=O)/C=C/c2ccc(O)c(O)c2)[C@@H](O)[C@H](O)[C@H]1OC(=O)/C=C/c1ccc(O)c(O)c1`, the pIC50 was 4.52.

For `CO[C@H]1O[C@H](CO)[C@@H](O)[C@H](OC(=O)/C=C/c2ccc(O)c(O)c2)[C@H]1OC(=O)/C=C/c1ccc(O)c(O)c1`, the negative-log IC50 (pIC50) is 4.54.

In the case of `CO[C@H]1O[C@H](COC(=O)/C=C/c2ccc(O)c(O)c2)[C@@H](O)[C@H](OC(=O)/C=C/c2ccc(O)c(O)c2)[C@H]1O`, the pIC50 is 4.08.

Turning to `COC1O[C@H](CO)[C@@H](O)[C@H](OC(=O)c2cc(O)c(O)c(O)c2)[C@H]1OC(=O)c1cc(O)c(O)c(O)c1` (stereo partly specified), the pIC50 was 5.27. This pIC50 lies 1.19 log units higher than the previous one.

For `CO[C@@H]1O[C@H](CO)[C@@H](O)[C@H](OC(=O)/C=C/c2ccc(O)c(O)c2)[C@H]1OC(=O)/C=C/c1ccc(O)c(O)c1`, the pIC50 is 4.50. This pIC50 lies 0.77 log units lower than the previous one.

The molecule `CO[C@@H]1O[C@H](COC(=O)/C=C/c2ccc(O)c(O)c2)[C@@H](OC(=O)/C=C/c2ccc(O)c(O)c2)[C@H](OC(=O)/C=C/c2ccc(O)c(O)c2)[C@H]1OC(=O)/C=C/c1ccc(O)c(O)c1` had a negative-log IC50 (pIC50) of 4.05.

As for `CO[C@H]1O[C@H](COC(=O)/C=C/c2ccc(O)c(O)c2)[C@@H](O)[C@H](O)[C@H]1OC(=O)/C=C/c1ccc(O)c(O)c1`, the pIC50 was 4.15.

On to `C[C@@H]1O[C@@H](O[C@@H]2[C@@H](O)[C@H](OCCc3ccc(O)c(O)c3)O[C@H](CO)[C@H]2OC(=O)/C=C/c2ccc(O)c(O)c2)[C@H](O)[C@H](O)[C@H]1O` [ACETOSIDE], for which the negative-log IC50 (pIC50) is 5.11. Against the preceding molecule, the pIC50 is 0.96 log units higher.

For the molecule `COc1cc(/C=C/C(=O)CC(=O)/C=C/c2ccc(O)c(OC)c2)ccc1O` [CURCUMIN], the pIC50 was 4.24. This pIC50 lies 0.87 log units lower than the previous one.
